Like-named read-outs stand apart in the source and are kept apart here.
How the values were obtained:
HEK-hOCT3 cells = test: MTT drug sensitivity assay in HEK-hOCT3 cells; assay type: cell-based, human
Experimental: (§1) Cytotoxicity of the platinum-based compounds was measured by MTT (thiazolyl blue tetrazolium bromide) assay. Cells were seeded in 100 μl of the culture medium without any antibiotics in 96-well plates at a predetermined cell density. For HEK 293 cells, poly-D-lysine coated plates were used. […] For the OCT inhibitor studies, the inhibitors (i.e., disopyramide or cimetidine) were added to the medium at a specified concentration immediately before the addition of the platinum-based compounds. After incubation for a specified time period, the drug-containing medium was replaced with fresh, drug-free medium and the incubation was continued for a total of 72 hours (start from the addition of platinum-based compounds). Then, the MTT assay was performed similarly as described in Alley et al., Cancer Res., 48:589-601 (1988). […] The maximal cell growth was the cell growth in the medium without any platinum-based compounds; C is the concentration of the platinum-based compound, and γ is the slope factor.
Briefly, the cells were seeded in 96-well plates at a density of 5,000 cells/well for the transfected MDCK cells or 12,000 cells/well for the transfected HEK 293 cells. The platinum-based drugs were added on the following day. After the specified time periods of drug exposure, the drug-containing medium was replaced with fresh, drug-free medium, and the incubation was continued for a total of 72 hours (start from the time when the drug was added). After incubation, the cell growth was determined by an MTT assay. Data are expressed as mean±SD from 3 to 6 independent experiments with each performed in quadruplicate. The resistance factor (RF) was defined as the ratio of the mean IC50 value in the MOCK cells to that in the OCT-transfected cells.

[1] = tested on: six colon cancer cell lines; test: MTT drug sensitivity, summary over the six colon cancer cell lines; assay type: cell-based, human
Experimental: as §1
The resistance factor (RF) due to the presence of cimetidine was defined as the ratio of the IC50 value in the presence of cimetidine to that in the absence of cimetidine.
The cell seeding density was 6,000-, 8,000-, 6,000-, 15,000-12,000- and 4,000 cells/well for HCT116, HT29, RKO, SW620, LS180, and DLD cells, respectively. When cimetidine (1.5 mM) was used, it was added to the wells immediately before the addition of the platinum-based drugs. The resistance factor (RF) was defined as the ratio of the mean IC50 value in the presence to that in the absence of cimetidine. Data are expressed as mean±SD from six measurements, and each measurement was performed in quadruplicate.

MDCK-hOCT1 cells = test: Platinum-DNA adduct formation in MDCK-hOCT1 cells; assay type: cell-based, canine
Experimental: After incubation at 37° C. and 5% CO2 for 2 hours, the cells were washed with ice-cold PBS three times and harvested. The genomic DNA was isolated from the cells and the platinum content associated with DNA was determined by ICP-MS and normalized for DNA content. Data are expressed as mean±SD from a typical experiment performed in triplicate. Two independent experiments were conducted and similar results were obtained.
After incubation, the cells were washed with ice-cold PBS three times and harvested. Genomic DNA was isolated from the harvested cells and the DNA-associated platinum content was determined by ICP-MS and normalized for the DNA content. Data are expressed as mean±SD of three measurements.
The platinum content associated with genomic DNA was determined as described in Samimi et al., Clin. Cancer Res., 10:4661-4669 (2004) with some modifications. Briefly, the cells were grown in 100 mm×20 mm dishes in the culture medium without any antibiotics to over 90% confluence. For HEK 293 cells, poly-D-lysine coated dishes were used. Then, the cells were incubated in the culture medium containing the specified concentrations of the platinum-based compounds at 37° C. in 5% CO2 for 2 hours (or 25 min as specified). In some experiments, phosphate buffer (PB: 1.06 mM KH2PO4, 2.97 mM Na2HPO4, pH 7.4) containing 155 mM NaCl (PB—Cl buffer) or 103 mM Na2SO4 (PB—SO4 buffer) was used instead of the culture medium as specified. For the OCT inhibitor study, the incubation medium (buffer) also contained disopyramide or cimetidine). If PB—Cl or PB—SO4 buffer was used, the cells were washed with the same buffer once before drug incubation. After incubation, the cells were washed with ice-cold PBS, scraped, and pelleted. Genomic DNA was isolated from the cell pellets using the Wizard® Genomic DNA Purification Kit (Promega, Madison, Wis.) following the manufacturer's instructions. Briefly, the cells were lysed with Nuclei Lysis Solution. After RNA digestion and protein precipitation, the lysates were centrifuged and the resulting supernatant was aliquoted. The genomic DNA prepared from two different aliquots of the supernatant was used for platinum and DNA content determination, respectively. For the determination of platinum, the DNA samples were treated with 70% nitric acid at 65° C. and diluted in the same way as described above. The platinum content was analyzed using ICP-MS and the DNA content was measured by absorption spectroscopy.

[2] = 2-hr exposure, disopyramide 150 μM

`O=C1[O][Pt]2([NH][C@@H]3CCCC[C@H]3[NH]2)[O]C1=O` [oxaliplatin] was tested, and the IC50 (HEK-hOCT3 cells; drug exposure 7 hour) was 2220 ± 410 nM, the IC50 (HEK-hOCT3 cells; drug exposure 24 hour) was 620 ± 190 nM and the IC50 (HEK-hOCT3 cells; drug exposure 72 hour) was 690 ± 190 nM. For the same compound, the IC50 ([1]; absence of cimetidine, read-out: mean±SE of IC50 in the six cell lines, control) was 3880 ± 1420 nM, the IC50 ([1]; cimetidine 1.5 mM, read-out: mean±SE of IC50 in the six cell lines, in the presence of cimetidine) was 29100 ± 10700 nM and the “rb in MDCK-hOCT1” value (MDCK-hOCT1 cells; 20 μM, PB—Cl, 25 min) was 3.08±0.41×10^−6. The “rb in MDCK-hOCT1” value (MDCK-hOCT1 cells; 20 μM, PB—SO4, 25 min) was 1.31±0.29×10^−6, the “Pt-DNA adduct level in MDCK-hOCT1” value (MDCK-hOCT1 cells; 20 μM, chloride free buffer PB—SO4, 25 min) was 0.00398±0.00089 pmol/μg DNA and the “DNA-associated platinum level in MDCK-hOCT1” value (MDCK-hOCT1 cells; 20 μM, chloride-containing buffer PB—Cl, 25 min) was 0.00933±0.00124 pmol/μg DNA. The “platinum-DNA adduct level in MDCK-hOCT1, disopyramide-treated” value (MDCK-hOCT1 cells; [2]) was 0.0217±0.0019 pmol/μg DNA, the “rb in MDCK-hOCT1, disopyramide-treated” value (MDCK-hOCT1 cells; [2]) was 7.16±0.63×10^−6 and the “platinum-DNA adduct level in MDCK-hOCT1” value (MDCK-hOCT1 cells; 2-hr exposure, oxaliplatin 10 μM, culture medium) was 0.0457±0.0011 pmol/μg DNA.

Reference: US20100028259A1, “USE OF ORGANIC CATION TRANSPORTERS FOR CANCER DIAGNOSIS AND THERAPY” (The Regents of the University of California, priority 2006, published 2010)
